Source: patent US20230158042A1, “COMBINATION CANCER THERAPY WITH PENTAAZA MACROCYCLIC RING COMPLEX AND HORMONE THERAPY AGENT” (Galera Labs, LLC, priority 2020, published 2023)

Columns and labels:
[1] = system: Sirt3^-/--MT-SIRT3^DN allografts; test: Sirt3-/--MT-SIRT3^DN mammary allograft tumor growth (bioluminescence); format: in vivo; details: GC4419 by IP every other day for five weeks; compared to control mice
Experimental: FIGS. 29a-29b are plots showing that the growth of murine mammary allograft tumors is inhibited by exposure to the MnSOD mimic GC4419 much more in cells without expression of deacetylation competent SIRT3. […] Mice were subsequently injected with luciferin potassium (120 mg/kg) every week and signal intensity will be quantified. Error bars represent one SD from the mean.
These cell lines were subsequently infected with and selected to express either a SIRT3 wild-type (Sirt3^-/--MT-SIRT3^WT) or deacetylation activity null (Sirt3^-/--MT-SIRT3^DN) gene and a lenti-luciferase to assess tumor growth by bioluminescence. Allograft tumor mice were split into four groups: (1) control, untreated Sirt3^-/--MT-SIRT3^DN; (2) GC4419 treated Sirt3^-/--MT-SIRT3^DN; (3) control, untreated Sirt3^-/--MT-SIRT3^WT; and (4) GC4419 treated Sirt3^-/--MT-SIRT3^WT. […] Accordingly, it was shown that the growth of murine mammary allograft tumors is inhibited by pharmacologically mimicking the activity of deacetylated lysine 68 MnSOD with a manganese pentaazamacrocyclic dismutase mimetic much more in tumors without deacetylation competent SIRT3. Further, this supports that selection of tumors displaying an AcK68 signature could increase response to treatment with a MnPAM dismutase mimetic (or other methods) alone or in combination with other therapies.

mice lacking Sirt3 = details: IP injection with 2 mg/kg 30 minutes before IR; cited from earlier work
MCF7-Cispl-R cells = test: Cell ROS levels in cisplatin-resistant MCF7 cells; format: cell-based, human; details: data not shown
Experimental: FIGS. 27a-27c are an image and graphs showing that MnSOD—AcK68/ROS/HIF2α dysregulation directs PanR (multi-therapy resistance to cancer therapeutics). […] In FIG. 27b, ROS was measured in MCF7-Cispl-R cells, compared with MCF7 cells, using an Amplex Red assay. In FIG. 27c, MCF7 and MCF7-MnSOD^K68Q cells were measured by clonogenic cell survival assays, without and with cisplatin exposure, and infected with scrambled (C) or HIF2α shRNA. All experiments were done in triplicate. Error bars are ± 1 SEM. * p < 0.05.

MCF7-MnSOD^K68Q cells [2] = test: Clonogenic cell survival in MCF7-MnSOD^K68Q cells; format: cell-based, human; details: GC4419 10 µM alone
Experimental: FIGS. 25a-25b show clonogenic cell survival studies in MCF7-MnSOD^K68Q cells exposed to either: Fulv at 100 nM (in FIG. 25a); or Palb at 0.5 µM (in FIG. 25b) using standard methods. […] Error bars are ± 1 SEM. Experiments in triplicate. *** p < 0.001.
Clonogenic cell survival assay. For the clonogenic survival analysis, exponentially growing cells were replated using appropriate dilutions, and clonogenic survival was evaluated after 14 days in regular growth medium. Cells were stained with crystal violet, and colonies of >50 cells were counted and utilized to calculate clonogenic survival^46.

T47D-MnSOD^K68Q cells = test: Ki-67 staining in T47D-MnSOD^K68Q cells; format: cell-based, human; details: 5 µM GC4419 for 5 days
Experimental: (§1) MCF7-MnSOD^K68Q cells (in FIGS. 17a and 17b) and T47D-MnSOD^K68Q cells (in FIGS. 17c and 17d) were treated with 5 µM GC4419 and/or 1 µM 4-hydroxy-Tam for 5 days, and then stained for Ki-67 as well as DAPI. Quantifications of average Ki-67 intensity are shown in the bar graphs. In FIG. 17e, MCF7 and MCF7-HTR cells were implanted into both hind limbs of nude mice and tumor volumes were measured every 3 days for 6 weeks and the number of tumors that successfully implanted versus the total number of mice infected with MCF7 and MCF7-HTR as well as the average tumor weight and tumor size are shown. Representative images are shown. All experiments were done in triplicate. Error bars represent ± 1 SEM. ***p < 0.001.
(§2) Cells seeded on glass coverslips were fixed in 4% paraformaldehyde and then blocked with 1% BSA and 10% normal goat serum in 1x PBS. Cells were incubated with anti-Ki-67 (c-bioscience) antibody in 1x PBS followed by incubation with goat anti-rabbit IgG conjugated with Alexa Fluor 647 (Invitrogen) in 1x PBS with 5% goat serum. Cells were washed in 1x PBS, mounted, and imaged with a fluorescence microscope. Fluorescence images were captured using a laser scanning confocal microscope (Nikon A1 R). The paired images in all the figures were collected at the same gain and offset settings. Post-collection processing was applied uniformly to all paired images.

MCF-7-MnSOD^K68Q cells = test: Clonogenic cell survival after 5 Gy ionizing radiation in MCF-7-MnSOD^K68Q cells; format: cell-based, human; details: 5 µM GC4419 for 5 days
Experimental: FIGS. 30a-30b are plots showing that mimicking acetylation of MnSOD—K68 with MnSOD^K68Q expression induces ionizing radiation resistance (IRR) in breast cancer cells, and that pharmacologically mimicking the activity of deacetylated lysine 68 MnSOD with a manganese pentaazamacrocyclic dismutase mimetic reverses this IRR. […] All experiments were done in triplicate. Error bars represent ± 1 SEM. ***p < 0.001. Data were analyzed by a t-test.

[3] = system: head-and-neck cancer patients; details: patients undergoing chemoradiation therapy, Phase 1 trial; cited from earlier work
MCF7-MnSOD^K68Q cells [4] = test: Ki-67 staining in MCF7-MnSOD^K68Q cells; format: cell-based, human; details: 5 µM GC4419 for 5 days
Experimental: as §1, §2

[5] = system: Tam resistant as well as loss of Sirt3 tumor cell lines; test: In vitro Tam resistance in Tam resistant and loss of Sirt3 tumor cell lines; format: cell-based; details: data not shown
LNCaP-MnSOD^K68Q cells = test: Clonogenic cell survival in LNCaP-MnSOD^K68Q cells; format: cell-based; details: GC4419 20 µM for 5 days, treated with ENZ
Experimental: In FIG. 20a, clonogenic cell survival experiments were done in LNCaP-ENZR cells infected with lenti-MnSOD^K68R or lenti-MnSOD^K68Q, in the presence of ENZ (10 µM). In FIG. 20b, clonogenic survival assays were done in LNCaP cells infected with lenti-MnSOD^WT, lenti-MnSOD^K68R, and lenti-MnSOD^K68Q, and selected with neomycin, and placed in 10 µM of ENZ for 72 hr. Error bars ± 1 SEM. Experiments were done in triplicate. **p < 0.01.
FIGS. 21a-21b are a chart and graph showing that pharmacologically mimicking the activity of deacetylated lysine 68 MnSOD with a manganese pentaazamacrocyclic dismutase mimetic both inhibited the growth of LNCaP-ENZR tumors and reversed the enzalutamide resistance in LNCaP-ENZR / LNCaP—MnSOD^K68Q cells and tumors. In FIG. 21a, clonogenic cell survival experiments were performed in LNCaP-ENZR (left two bars) and LNCaP—MnSOD^K68Q (right two bars) treated with ENZ, with or without GC4419 (20 µM) for 5 days. […] Tumor volumes were measured three times a week for 46 days. For each group n=10. Error bars ± 1 SEM. All experiments done in triplicate. **p < 0.01.

## [Cl][Mn][Cl].c1cc2nc(c1)CN[C@H]1CCCC[C@@H]1NCCN[C@H]1CCCC[C@@H]1NC2 [GC4419]
[1]
  tumor growth: significant decrease in tumor growth
Mice lacking Sirt3
  liver damage: attenuated liver damage
MCF7-Cispl-R cells
  cell ROS levels: decreased cell ROS levels
MCF7-MnSOD^K68Q cells [2]
  cell growth (clonogenic): inhibited the growth of MnSOD^K68Q breast cancer cells
T47D-MnSOD^K68Q cells
  Ki-67 IHC staining: reversed the increase in Ki-67 IHC staining
MCF-7-MnSOD^K68Q cells
  ionizing radiation resistance (IRR) phenotype, clonogenic cell survival: reversed the IRR phenotype
[3]
  oral mucositis: reduce oral mucositis
MCF7-MnSOD^K68Q cells [4]
  Ki-67 IHC staining: reversed the increase in Ki-67 IHC staining
[5]
  Tam resistance: reverses Tam resistance
LNCaP-MnSOD^K68Q cells
  ENZR phenotype (clonogenic cell survival): converted to a sensitive phenotype
